Results on six molecules are retold here after ChEMBL document CHEMBL1139522, “Methyl pyropheophorbide-a analogues: potential fluorescent probes for the peripheral-type benzodiazepine receptor. Effect of central metal in photosensitizing efficacy” (J Med Chem, 2005).

For assay [1], the species on record is Mus musculus. In words: In vitro photodynamic therapy efficacy (0.06 uM) in RIF tumor cells using MTT assay; expressed as light dose. It counts as functional. In general terms: Tetrazolium dyes change colour on reduction, which living cells bring about.
For assay [2], the species on record is Mus musculus. In words: In vitro photodynamic therapy efficacy (1.0 uM) in RIF tumor cells using MTT assay; expressed as light dose. It is filed as functional.
The nature of assay [3]: Displacement of [3H]PK11195 from peripheral benzodiazepine receptor. For orientation: Loss of bound radioactivity is the signal in a displacement assay; it reports binding, not function.

Where only a bound is given, the exact number is not on record here.

As for `C=Cc1c(C)c2[n]3c1=CC1=[N+]4C(=Cc5c(C)c6c7[n]5[Zn-2]34[N+]3=C(C=2)[C@@H](C)[C@H](CCC(=O)OC)C3=C7CC6=O)C(CC)=C1C` (stereo partly drawn), the values for the LD50 in the assay filed under Mus musculus [1] and in the assay listed under Mus musculus [2] were over 2 J/cm2 and 0.7 J/cm2, respectively. This molecule also displayed an IC50 in assay [3] of 2890 nM.

Consider `C=Cc1c(C)c2cc3nc(c4c5nc(cc6[nH]c(cc1[nH]2)c(C)c6CC)C(C)=C5C(=O)C4)[C@@H](CCC(=O)OC)[C@@H]3C`, for which the LD50 in the assay filed under Mus musculus [1] was over 2 J/cm2; in the assay listed under Mus musculus [2], “Toxic”. The molecule also had an IC50 in assay [3] of 1820 nM.

For `C=Cc1c(C)c2cc3nc(c4c5nc(cc6[nH]c(cc1[nH]2)c(C)c6CC)C(C)=C5C(=O)C4)[C@@H](CCC(=O)NCCCCCCNc1ccc([N+](=O)[O-])c2nonc12)[C@@H]3C`, the LD50 in the assay listed under Mus musculus [1] and in the assay listed under Mus musculus [2] was over 2 J/cm2 in each case. The molecule further came in with a half-maximal inhibitory concentration (IC50) in assay [3] of 37200 nM.

In the assay filed under Mus musculus [1], `CCCCCCOC(C)C1=C(C)c2cc3nc(c4c5[nH]c(cc6[nH]c(cc1n2)c(C)c6CC)c(C)c5C(=O)C4)[C@@H](CCC(=O)OC)[C@@H]3C` (stereo partly drawn) registered an LD50 of 0.43 J/cm2. The IC50 in assay [3] was found to be 17000 nM.

In turn, `CCC(C)N(C)C(=O)c1cc2ccccc2c(-c2ccccc2Cl)n1` (stereo not drawn) [PK-11195] yielded an IC50 in assay [3] of 390 nM.

On to `O=C(Cc1c[nH]c2ccccc12)NCCCCCCNc1ccc([N+](=O)[O-])c2nonc12`, for which the IC50 in assay [3] was 320 nM.

Broadly, the IC50 is the concentration that gives 50% inhibition. Higher therefore signals lower potency.
